EC50 data for 36 compounds are collected here from US20250221966A1, “RXFP1 AGONISTS” (BRISTOL-MYERS SQUIBB COMPANY, priority 2021, published 2025).

The structures appear in SMILES notation. pEC50: −log10 of the molar value.

In the first assay the target is T1, human RXFP1 (Homo sapiens, UniProt Q9HBX9).
T1 construct: expressed in transfected cells
T1 sequence (Q9HBX9 1-757): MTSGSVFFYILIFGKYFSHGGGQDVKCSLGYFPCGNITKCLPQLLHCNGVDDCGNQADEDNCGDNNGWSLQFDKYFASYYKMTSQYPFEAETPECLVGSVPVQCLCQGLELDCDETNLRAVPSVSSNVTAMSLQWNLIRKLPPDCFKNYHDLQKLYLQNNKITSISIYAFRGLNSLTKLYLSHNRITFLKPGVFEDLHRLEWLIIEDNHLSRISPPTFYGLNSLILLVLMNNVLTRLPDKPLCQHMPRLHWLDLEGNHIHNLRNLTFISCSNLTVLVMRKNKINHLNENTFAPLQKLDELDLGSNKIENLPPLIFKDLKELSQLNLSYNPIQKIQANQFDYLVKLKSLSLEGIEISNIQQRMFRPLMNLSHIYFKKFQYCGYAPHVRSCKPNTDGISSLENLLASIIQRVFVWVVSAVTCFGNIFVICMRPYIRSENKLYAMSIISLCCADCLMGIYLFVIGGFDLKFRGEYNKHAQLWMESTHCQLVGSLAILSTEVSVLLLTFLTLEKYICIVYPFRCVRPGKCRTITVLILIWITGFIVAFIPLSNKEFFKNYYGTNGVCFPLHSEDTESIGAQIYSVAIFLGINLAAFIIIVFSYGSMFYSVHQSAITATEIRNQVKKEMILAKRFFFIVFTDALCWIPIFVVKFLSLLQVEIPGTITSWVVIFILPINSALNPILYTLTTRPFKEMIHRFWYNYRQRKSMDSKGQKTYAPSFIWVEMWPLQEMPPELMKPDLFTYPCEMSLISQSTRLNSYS
Put plainly: RXFP1 cAMP assay (hRXFP1 HEK293 cAMP assay, HTRF). It counts as cell-based. The following applies: HEK293 cells stably expressing human RXFP1, 30 min at room temperature, read-out: cAMP hRXFP1 HEK293 Assay EC50. The gist of the method:
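Intracellular cAMP was read by HTRF, with potency fitted to a 4-parameter logistic curve. Compound exposure (0.010 nM–50 μM final, 2% DMSO) lasted 30 min at room temperature. Cells were hRXFP1-HEK293 at 1500 per well in IBMX-containing (0.5 mM) HEPES-buffered HBSS.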
In general terms: Changes in cAMP serve as a functional read-out for many G protein-coupled receptors.
Turning to `COc1ccc(C2=NOC(C(C)(O)C(F)(F)F)C2)cc1C(=O)N[C@H]1[C@@H](C(=O)Nc2ccc(F)c(C(F)(F)F)c2)[C@H]2CC[C@@H]1/C2=C\C1CC1` (single isomer, unassigned) [compound 682], the pEC50 (as a rule, −log10 of the EC50, conventionally taken in molar units) was 6.21.
On the same count and under the same terms, for `COc1ccc(C2=NOC3COCC23)cc1C(=O)N[C@H]1[C@@H](C(=O)NC(C)C2CCC2)[C@H]2CC[C@@H]1/C2=C\C1CC1` (single isomer, unassigned) [compound 683] the value was 6.20; for `COc1cc(C)c(C2=NOC3COCC23)cc1C(=O)N[C@H]1[C@@H](C(=O)Nc2ccc(F)c(C(F)(F)F)c2)[C@H]2CC[C@@H]1/C2=C\C1CC1` (single isomer, unassigned) [compound 686], 6.18.
As for `COCCOC1(C2CC(c3ccc(OC)c(C(=O)N[C@H]4[C@@H](C(=O)Nc5ccc(F)c(C(F)(F)F)c5)[C@H]5CC[C@@H]4/C5=C\C4CC4)c3)=NO2)CC1` (single isomer, unassigned) [compound 687], the pEC50 is 6.18.
Regarding `COc1ccc(C2=NOC3CN(CCO)CC23)cc1C(=O)N[C@H]1[C@@H](C(=O)Nc2ccc(F)c(C(F)(F)F)c2)[C@H]2CC[C@@H]1/C2=C\C1CC1` (single isomer, unassigned) [compound 691], the negative logarithm of the EC50 (pEC50) was 6.13.
The same measure, in the same setting: with `O=C(N[C@H]1[C@@H](C(=O)Nc2ccc(F)c(C(F)(F)F)c2)[C@H]2CC[C@@H]1/C2=C\C1CC1)c1cc(C2=NOC3CC(CO)CC23)ccc1F` (single isomer, unassigned) [compound 692] the figure was 6.10.
Still for that read-out and setting: for `COc1ccc(C2=NOC3COCC23)c(F)c1C(=O)N[C@H]1[C@@H](C(=O)Nc2ccc(F)c(C(F)(F)F)c2)[C@H]2CC[C@@H]1/C2=C\C1CC1` (single isomer, unassigned) [compound 693] the value was 6.10; for `COc1ccc(C2CCCN2C(=O)OC(C)(C)C)cc1C(=O)N[C@@H]1C2CCC(/C2=C/C2CC2)[C@@H]1C(=O)Nc1ccc(F)c(C(F)(F)F)c1` (single isomer, unassigned) [compound 694], 6.10; for `COc1cc(C2CC2)c(C2=NOC3COCC23)cc1C(=O)N[C@H]1[C@@H](C(=O)Nc2ccc(F)c(C(F)(F)F)c2)[C@H]2CC[C@@H]1/C2=C\C1CC1` (single isomer, unassigned) [compound 695], 6.08.
For the compound `COc1cc(C(=O)N[C@H]2[C@@H](C(=O)Nc3ccc(F)c(C(F)(F)F)c3)[C@H]3CC[C@@H]2/C3=C\C2CC2)cc(C2=NOC3COCC23)c1` (single isomer, unassigned) [compound 696], the pEC50 is 6.02.
As for `COc1ccc(N2CCCC(CO)C2)cc1C(=O)N[C@@H]1C2CCC(/C2=C/C2CC2)[C@@H]1C(=O)Nc1ccc(F)c(C(F)(F)F)c1` (single isomer, unassigned) [compound 704], the pEC50 is 5.89.
Turning to `COc1ccc(N2CCCC(CO)C2)cc1C(=O)N[C@@H]1C2CCC(/C2=C/C2CC2)[C@@H]1C(=O)Nc1ccc(F)c(C(F)(F)F)c1` (single isomer, unassigned) [compound 705], the pEC50 was 5.89.
The same measure, in the same setting: with `COc1ccc(C2=NOC3C(O)CCC23)cc1C(=O)N[C@H]1[C@@H](C(=O)Nc2ccc(F)c(C(F)(F)F)c2)[C@H]2CC[C@@H]1/C2=C\C1CC1` (single isomer, unassigned) [compound 706] the figure was 5.88; with `COc1ccc(C2=NOC3(C2)CC(CO)C3)cc1C(=O)N[C@H]1[C@@H](C(=O)Nc2ccc(F)c(C(F)(F)F)c2)[C@H]2CC[C@@H]1/C2=C\C1CC1` (single isomer, unassigned) [compound 711], 5.81.
Regarding `COc1ccc(C2CCCN2C(=O)OC(C)(C)C)cc1C(=O)N[C@@H]1C2CCC(/C2=C/C2CC2)[C@@H]1C(=O)Nc1ccc(F)c(C(F)(F)F)c1` (single isomer, unassigned) [compound 715], the pEC50 is 5.71.
Consider `Cc1ccc(C2=NOC3COCC23)cc1C(=O)N[C@H]1[C@@H](C(=O)Nc2ccc(F)c(C(F)(F)F)c2)[C@H]2CC[C@@H]1/C2=C\C1CC1` (single isomer, unassigned) [compound 716], for which the pEC50 is 5.70.
On the same count and under the same terms, with `O=C(N[C@H]1[C@@H](C(=O)Nc2ccc(F)c(C(F)(F)F)c2)[C@H]2CC[C@@H]1/C2=C\C1CC1)c1cc(C2=NOC3CC(CO)CC23)ccc1F` (single isomer, unassigned) [compound 717] the figure was 5.63; with `O=C(N[C@H]1[C@@H](C(=O)Nc2ccc(F)c(C(F)(F)F)c2)[C@H]2CC[C@@H]1/C2=C\C1CC1)c1cccc(C2=NOC3COCC23)c1` (single isomer, unassigned) [compound 719], 5.60.
On the same count and under the same terms, with `O=C(N[C@H]1[C@@H](C(=O)Nc2ccc(F)c(C(F)(F)F)c2)[C@H]2CC[C@@H]1/C2=C\C1CC1)c1cc(C2=NOC3CC(CO)CC23)ccc1F` (single isomer, unassigned) [compound 723] the figure was 5.30; with `COc1ccc(C2CC3COCC32)cc1C(=O)N[C@H]1[C@@H](C(=O)Nc2ccc(F)c(C(F)(F)F)c2)[C@H]2CC[C@@H]1/C2=C\C1CC1` (single isomer, unassigned) [compound 729], 7.09.
With `COc1ccc(C2CC3CN(C(=O)OC(C)(C)C)CC32)cc1C(=O)N[C@H]1[C@@H](C(=O)Nc2ccc(F)c(C(F)(F)F)c2)[C@H]2CC[C@@H]1/C2=C\C1CC1` (single isomer, unassigned) [compound 730], the negative logarithm of the EC50 (pEC50) is 6.58.
Still for that read-out and setting: with `COc1ccc(C2CC3CN(C(=O)OC(C)(C)C)CC32)cc1C(=O)N[C@H]1[C@@H](C(=O)Nc2ccc(F)c(C(F)(F)F)c2)[C@H]2CC[C@@H]1/C2=C\C1CC1` (single isomer, unassigned) [compound 731] the figure was 8.00.
The same measure, in the same setting: with `COc1ccc(C2CC3CNS(=O)(=O)C32)cc1C(=O)N[C@H]1[C@@H](C(=O)Nc2ccc(F)c(C(F)(F)F)c2)[C@H]2CC[C@@H]1/C2=C\C1CC1` (single isomer, unassigned) [compound 732] the figure was 7.00; with `COc1ccc(C2CC3CNS(=O)(=O)C32)cc1C(=O)N[C@H]1[C@@H](C(=O)Nc2ccc(F)c(C(F)(F)F)c2)[C@H]2CC[C@@H]1/C2=C\C1CC1` (single isomer, unassigned) [compound 733], 8.20; with `COc1ccc(C2CC3CN(CCCO)C(=O)C32)cc1C(=O)N[C@H]1[C@@H](C(=O)Nc2ccc(F)c(C(F)(F)F)c2)[C@H]2CC[C@@H]1/C2=C\C1CC1` (single isomer, unassigned) [compound 734], 7.64.
With `COc1ccc(N2CCCC(CO)C2)cc1C(=O)NC1C2CCC(/C2=C/C(F)(F)F)C1C(=O)Nc1ccc(F)c(C(F)(F)F)c1` (stereo in doubt) [Example 329, (1R,2R,3R,4R,Z)—N-(4-fluoro-3-(trifluoromethyl)phenyl)-3-(5-(3-(hydroxymethyl)piperidin-1-yl)-2-methoxybenzamido)-7-(2,2,2-trifluoroethylidene)bicyclo[2.2.1]heptane-2-carboxamide], the pEC50 is 5.32.
The same measure, in the same setting: with `COc1cc(F)c(F)cc1C(=O)N[C@@H]1C2CCC(/C2=C/Br)[C@@H]1C(=O)Nc1ccc(F)c(C(F)(F)F)c1` (stereo partly drawn) [Example 11] the figure was 6.64.
Still for that read-out and setting: for `COc1cc(F)c(F)cc1C(=O)N[C@@H]1[C@@H]2CCC(/C2=C/c2ccoc2)[C@@H]1C(=O)Nc1ccc(F)c(C(F)(F)F)c1` [Example 12] the value was 6.39.
With `COc1cc(F)c(F)cc1C(=O)N[C@@H]1C2CCC(/C2=C/C(=O)Nc2ccccc2)[C@@H]1C(=O)Nc1ccc(F)c(C(F)(F)F)c1` (stereo partly drawn) [Example 34], the pEC50 is 5.34.
Same read-out and setting: for `COc1cc(F)c(F)cc1C(=O)N[C@@H]1C2CCC(C2=C(C)C)[C@]1(F)C(=O)Nc1ccc(F)c(C(F)(F)F)c1` (stereo partly drawn) [Example 51] the value was 6.10.
The same measure, in the same setting: with `COc1cc(F)c(F)cc1C(=O)N[C@@H]1C2CCC(/C2=C\c2ccccc2)[C@]1(F)C(=O)Nc1ccc(F)c(C(F)(F)F)c1` (stereo partly drawn) [Example 52] the figure was 5.52; with `COc1cc(F)c(F)cc1C(=O)N[C@@H]1C2CCC(/C2=C/c2ccccc2)[C@]1(F)C(=O)Nc1ccc(F)c(C(F)(F)F)c1` (stereo partly drawn) [Example 53], 6.62; with `COc1cc(F)c(F)cc1C(=O)N[C@@H]1C2CCC(/C2=C/C(C)(C)O)[C@@H]1C(=O)Nc1ccc(F)c(C(F)(F)F)c1` (stereo partly drawn) [Example 65], 5.70.
Take `COc1ccc(Br)cc1C(=O)NC1C2CCC(C2=C(C)C)C1C(=O)Nc1ccc(F)c(C(F)(F)F)c1` (stereo not drawn) [Example 76]: the pEC50 is 6.40.
Same read-out and setting: with `COc1ccc(Br)cc1C(=O)N[C@@H]1C2CCC(/C2=C/c2ccccc2)[C@@H]1C(=O)Nc1ccc(F)c(C(F)(F)F)c1` (stereo partly drawn) [Example 77] the figure was 6.48.

Still in this assay, the particulars now being: cAMP hRXFP1 HEK293 Assay EC50, HEK293 cells stably expressing human RXFP1, 30 min at room temperature.
`COc1cc(F)c(F)cc1C(=O)N[C@@H]1C2CCC(/C2=C2\C=Cc3ccccc32)[C@@H]1C(=O)Nc1ccc(F)c(C(F)(F)F)c1` (stereo partly drawn) [Example 33] had a negative-log EC50 (pEC50) of 6.51.
